The results in this text go back to US5672609A, “Pyridine compounds, intermediates compositions and methods of use” (Eli Lilly and Company, priority 1996, dated 1997).

Test [1] relates to Uterine Eosinophil Peroxidase (EPO). Kind of test: Uterine Eosinophil Peroxidase (EPO) Assay (Table 1). The format is in vivo, female Sprague Dawley rats. On the set-up: key to Uterine EPO (V. max): Vmax of absorbance increase at 450 nm, monitored over 1 min. Particulars: OVX rats, daily for 4 days. The text has this: (§1) Seventy-five day old female Sprague Dawley rats (weight range of 200 to 225 g) were obtained from Charles River Laboratories (Portage, Mich.). The animals were either bilaterally ovariectomized (OVX) or exposed to a sham surgical procedure at Charles River Laboratories, and then shipped after one week. Upon arrival, they were housed in metal hanging cages in groups of 3 or 4 per cage and had ad libitum access to food (calcium content approximately 0.5%) and water for one week. Room temperature was maintained at 22.2° ±1.7° C. with a minimum relative humidity of 40%. The photoperiod in the room was 12 hours light and 12 hours dark.
(§2) Dosing Regimen Tissue Collection. After a one week acclimation period (therefore, two weeks post-OVX) daily dosing with test compound was initiated. 17α-ethynyl estradiol or the test compound were given orally, unless otherwise stated, as a suspension in 1% carboxymethylcellulose or dissolved in 20% cyclodextrin. Animals were dosed daily for 4 days. Following the dosing regimen, animals were weighed and anesthetized with a ketamine: Xylazine (2:1, V:V) mixture and a blood sample was collected by cardiac puncture. The animals were then sacrificed by asphyxiation with CO2, the uterus was removed through a midline incision, and a wet uterine weight was determined.
Uterine Eosinomhil Peroxidase (EPO) Assay. Uteri were kept at 4° C. until time of enzymatic analysis. The uteri were then homogenized in 50 volumes of 50 mM Tris buffer (pH-8.0) containing 0.005% Triton X-100. Upon addition of 0.01% hydrogen peroxide and 10 mM O-phenylenediamine (final concentrations) in Tris buffer, increase in absorbance was monitored for one minute at 450 nm. The presence of eosinophils in the uterus is an indication of estrogenic activity of a compound. The maximal velocity of a 15 second interval was determined over the initial, linear portion of the reaction curve.
As is expressed in the below data, estrogenicity also was assessed by evaluating the response of eosinophil infiltration into the uterus.
(§3) The data presented in Table 1 below reflects the response of 5 to 6 rats per treatment.

For test [2], the system named is MCF-7 breast adenocarcinoma cells. In words: MCF-7 Proliferation Assay. The format is cell-based. Particulars: Homo sapiens, MCF7, tritiated thymidine, 48 hours. The procedure: MCF-7 breast adenocarcinoma cells (ATCC HTB 22) were maintained in MEM (minimal essential medium, phenol red-free, Sigma, St. Louis, Mo.) supplemented with 10% fetal bovine serum (FBS) (V/V), L-glutamine (2 mM), sodium pyruvate (1 mM), HEPES {(N-[2-hydroxyethyl]piperazine-N'-[2-ethanesulfonic acid]10 mM}, non-essential amino acids and bovine insulin (1 ug/mL) (maintenance medium). Ten days prior to assay, MCF-7 cells were switched to maintenance medium supplemented with 10% dextran coated charcoal stripped fetal bovine serum (DCC-FBS) assay medium) in place of 10% FBS to deplete internal stores of steroids. MCF-7 cells were removed from maintenance flasks using cell dissociation medium (Ca++/Mg++free HBSS (phenol red-free) supplemented with 10 mM HEPES and 2 mM EDTA). Cells were washed twice with assay medium and adjusted to 80,000 cells/mL. Approximately 100 μL (8,000 cells) were added to flat-bottom microculture wells (Costar 3596) and incubated at 37° C. in a 5% CO2 humidified incubator for 48 hours to allow for cell adherence and equilibration after transfer. Serial dilutions of drugs or DMSO as a diluent control were prepared in assay medium and 50 μL transferred to triplicate microcultures followed by 50 μL assay medium for a final volume of 200μ. After an additional 48 hours at 37° C. in a 5% CO2 humidified incubator, microcultures were pulsed with tritiated thymidine (1 uCi/well) for 4 hours. Cultures were terminated by freezing at -70° C. for 24 hours followed by thawing and harvesting of microcultures using a Skatron Semiautomatic Cell Harvester. Samples were counted by liquid scintillation using a Wallac BetaPlace β counter. Results in Table 4 below show the IC50 for certain compounds of the present invention.

The subject of test [3] is Serum cholesterol. Kind of test: Serum cholesterol in ovariectomized rats, 4-day oral dosing (Table 1). The format is in vivo, female Sprague Dawley rats. Particulars: Rattus norvegicus, po, 96 h, OVX rats, daily for 4 days.
Description: as §1, §2
Cholesterol Analysis. Blood samples were allowed to clot at room temperature for 2 hours, and serum was obtained following centrifugation for 10 minutes at 3000 rpm. Serum cholesterol was determined using a Boehringer Mannheim Diagnostics high performance cholesterol assay. Briefly the cholesterol was oxidized to cholest-4-en-3-one and hydrogen peroxide. The hydrogen peroxide was then reacted with phenol and 4-aminophenazone in the presence of peroxidase to produce a p-quinone imine dye, which was read spectrophotometrically at 500 nm. Cholesterol concentration was then calculated against a standard curve. The entire assay was automated using a Biomek Automated Workstation.
(§4) Data presented in Table 1 below show comparative results among ovariectomized rats, rats treated with 17α-ethynyl estradiol (EE2; an orally available form of estrogen), and rats treated with certain compounds of the present invention. […] This uterine response to estrogen is well recognized in the art.
as §3

For test [4], the system named is uterus. In words: Uterine weight in ovariectomized rats, 4-day oral dosing (Table 1). The format is in vivo, female Sprague Dawley rats. Particulars: Rattus norvegicus, po, 96 h, OVX rats, daily for 4 days, read-out: Uterine Wt. (% inc. vs. OVX). Here is the method: In the examples illustrating the methods, a post-menopausal model was used in which effects of different treatments upon circulating lipids were determined.
as §1, §2, §4, §3

The term IC50 denotes the midpoint of a concentration-inhibition curve. As usually defined, the ED50 is the midpoint of the dose-response relation. Turning to `Oc1ccc(-c2ccc(-c3ccc(O)cc3)c(-c3ccc(OCCN4CCCC4)cc3)n2)cc1` [Example 14, 2-[4-[2-(1-Pyrrolidinyl)ethoxy]phenyl]-3,6-bis(4-hydroxyphenyl)pyridine], the “Uterine EPO (V. max)” value in test [1] (0.1 mg/kg oral) is recorded as 2.4; in test [1] (1 mg/kg oral), 4.5; in test [1] (10 mg/kg oral), 4.2. The molecule also had an IC50 in test [2] of 9 nM. The inhibition in vivo at 0.1 mg/kg in test [3] (0.1 mg/kg oral, read-out: Serum Cholesterol (% dec. vs. OVX)) was found to be 11.9%. Besides, the inhibition in vivo at 1 mg/kg in test [3] (1 mg/kg oral, read-out: Serum Cholesterol (% dec. vs. OVX)) is -16.5%. Moreover, the inhibition in vivo at 10 mg/kg in test [3] (10 mg/kg oral, read-out: Serum Cholesterol (% dec. vs. OVX)) was -7.3%. For the same molecule, the ED50 in test [3] (oral, dose column in mg/kg, read-out: ED50 (effective dose to dec. serum chol. by 50%)) is greater than 10 mg/kg. For the same molecule, the change in vivo at 0.1 mg/kg in test [4] (0.1 mg/kg oral) turned out to be 6.3%. Besides, the change in vivo at 1 mg/kg in test [4] (1 mg/kg oral) is -3.3%. Further, in test [4] (10 mg/kg oral), the change in vivo at 10 mg/kg turned out to be 8.8%.
